Values of other authors as cited in patent US12691128B2, “Methods of treating eosinophilic esophagitis and reducing candidiasis” (Ellodi Pharmaceuticals, L.P., priority 2019, dated 2026).
Read-outs that look alike come from different tables or passages of the source.

Assays:
[1] = molecular target: cytochrome (CYP) isoenzyme 2C9 (Homo sapiens, UniProt P11712)
CYP3A4 = CYP3A4 (Homo sapiens, UniProt P08684)
glucocorticoid receptor = molecular target: T1, glucocorticoid receptor (Homo sapiens, UniProt P04150); parameters: reference not given here
T1 sequence (P04150 1-777): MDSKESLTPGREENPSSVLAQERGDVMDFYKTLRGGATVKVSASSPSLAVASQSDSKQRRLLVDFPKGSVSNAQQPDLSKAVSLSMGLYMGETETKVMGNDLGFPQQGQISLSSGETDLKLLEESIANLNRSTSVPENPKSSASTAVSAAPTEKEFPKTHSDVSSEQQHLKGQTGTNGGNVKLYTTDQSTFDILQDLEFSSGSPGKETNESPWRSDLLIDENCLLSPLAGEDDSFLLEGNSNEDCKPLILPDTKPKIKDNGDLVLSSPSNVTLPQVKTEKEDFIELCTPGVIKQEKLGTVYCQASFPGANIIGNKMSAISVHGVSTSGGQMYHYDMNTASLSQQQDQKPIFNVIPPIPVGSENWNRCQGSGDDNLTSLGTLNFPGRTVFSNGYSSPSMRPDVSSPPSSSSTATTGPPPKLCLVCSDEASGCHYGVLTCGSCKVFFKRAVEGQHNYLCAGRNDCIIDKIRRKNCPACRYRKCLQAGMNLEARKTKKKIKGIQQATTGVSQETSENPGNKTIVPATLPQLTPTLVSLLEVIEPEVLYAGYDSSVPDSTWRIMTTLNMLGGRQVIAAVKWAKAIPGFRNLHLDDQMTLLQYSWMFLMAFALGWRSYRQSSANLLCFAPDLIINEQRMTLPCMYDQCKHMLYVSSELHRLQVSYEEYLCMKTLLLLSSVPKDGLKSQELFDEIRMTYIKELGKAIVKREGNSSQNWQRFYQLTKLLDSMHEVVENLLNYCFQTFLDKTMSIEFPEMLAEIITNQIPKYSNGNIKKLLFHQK

[2] = reported

Sequence of CYP3A4 (P08684 whole entry): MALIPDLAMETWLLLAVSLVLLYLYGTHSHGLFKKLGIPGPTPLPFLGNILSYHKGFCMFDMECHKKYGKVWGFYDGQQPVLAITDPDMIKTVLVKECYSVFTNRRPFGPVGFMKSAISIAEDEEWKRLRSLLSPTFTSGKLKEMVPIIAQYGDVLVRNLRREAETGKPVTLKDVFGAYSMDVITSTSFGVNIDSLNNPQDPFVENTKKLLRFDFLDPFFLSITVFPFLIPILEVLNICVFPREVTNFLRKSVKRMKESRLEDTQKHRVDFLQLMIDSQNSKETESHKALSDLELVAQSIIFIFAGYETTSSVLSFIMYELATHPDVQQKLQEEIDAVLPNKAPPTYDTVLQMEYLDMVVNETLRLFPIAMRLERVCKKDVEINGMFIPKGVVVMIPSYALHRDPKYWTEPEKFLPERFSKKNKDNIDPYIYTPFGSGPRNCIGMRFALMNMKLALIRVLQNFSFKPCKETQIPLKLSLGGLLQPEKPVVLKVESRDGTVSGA
Sequence of cytochrome (CYP) isoenzyme 2C9 (P11712 whole entry): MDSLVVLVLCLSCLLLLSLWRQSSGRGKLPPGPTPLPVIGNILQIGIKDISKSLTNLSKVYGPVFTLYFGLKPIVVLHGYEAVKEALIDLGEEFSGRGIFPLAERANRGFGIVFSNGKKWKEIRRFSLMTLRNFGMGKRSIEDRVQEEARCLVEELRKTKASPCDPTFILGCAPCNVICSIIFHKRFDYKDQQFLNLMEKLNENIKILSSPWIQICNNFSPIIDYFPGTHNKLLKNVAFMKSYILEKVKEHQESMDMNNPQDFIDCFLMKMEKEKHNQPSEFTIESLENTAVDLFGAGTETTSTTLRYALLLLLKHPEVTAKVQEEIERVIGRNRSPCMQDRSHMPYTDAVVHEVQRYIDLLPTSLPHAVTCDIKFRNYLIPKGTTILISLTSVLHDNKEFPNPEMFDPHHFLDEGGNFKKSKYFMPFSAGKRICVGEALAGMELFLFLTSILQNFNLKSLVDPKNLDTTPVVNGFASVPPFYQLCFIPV

## OC(Cn1cncn1)(Cn1cncn1)c1ccc(F)cc1F [fluconazole]
[1]
  Inhibition of cytochrome (CYP) isoenzyme 2C9: potent inhibitor
CYP3A4
  Inhibition of CYP3A4: moderate inhibitor

## CC1(C)O[C@@H]2C[C@H]3[C@@H]4CCC5=CC(=O)C=C[C@]5(C)[C@@]4(F)[C@@H](O)C[C@]3(C)[C@]2(C(=O)CO)O1 [Triamicinolone acetonide]
Glucocorticoid receptor
  Relative Glucocorticoid Receptor Binding Affinity: 233

## CC1(C)O[C@@H]2C[C@H]3[C@@H]4C[C@H](F)C5=CC(=O)C=C[C@]5(C)[C@H]4[C@@H](O)C[C@]3(C)[C@]2(C(=O)CO)O1 [Flunisolide]
Glucocorticoid receptor
  Relative Glucocorticoid Receptor Binding Affinity: 190

## CCC(=O)O[C@]1(C(=O)SCF)[C@H](C)C[C@H]2[C@@H]3C[C@H](F)C4=CC(=O)C=C[C@]4(C)[C@@]3(F)[C@@H](O)C[C@@]21C [Fluticasone propionate, S-(fluoromethyl)-6α,9-difluoro-11β, 17-dihydroxy-16α-methyl-3-oxoandrosta-1,4-diene-17β-carbothioate, 17-propanoate]
[2]
  Oral bioavailability: less than 1%
acetone, dichloromethane, ethyl acetate and chloroform
  Solubility: sparingly soluble
Dimethyl sulfoxide and dimethylformamide
  Solubility: freely soluble
Methanol and 95% ethanol
  Solubility: slightly soluble
water
  Solubility: practically insoluble
Glucocorticoid receptor
  Relative Glucocorticoid Receptor Binding Affinity: 1775

## C[C@]12C=CC(=O)C=C1CC[C@@H]1[C@@H]2[C@@H](O)C[C@@]2(C)[C@H]1C[C@H]1O[C@@H](C3CCCCC3)O[C@]12C(=O)CO [des-CIC]
Glucocorticoid receptor
  Relative Glucocorticoid Receptor Binding Affinity: 12 (1200)

## C[C@]12C=CC(=O)C=C1CC[C@@H]1[C@@H]2[C@@H](O)C[C@@]2(C)[C@H]1CC[C@]2(O)C(=O)CO [Prednisolone]
Glucocorticoid receptor
  Relative Glucocorticoid Receptor Binding Affinity: 12
